In paper PMC9953660, “Using ΔK280 TauRD Folding Reporter Cells to Screen TRKB Agonists as Alzheimer’s Disease Treatment Strategy” (Biomolecules, 2023):

Legend:
MTT cell viability assay = assay type: cell-based; settings: human
Method: Human neuroblastoma SH-SY5Y cells with inducible ΔK280 TauRD-DsRed expression were maintained in DMEM/F-12 supplemented with fetal bovine serum (FBS, 10%) (Thermo Scientific, Waltham, MA, USA), penicillin/streptomycin (100 U/mL), selection antibiotics hygromycin (100 μg/mL) and blasticidin (5 μg/mL) (InvivoGen, San Diego, CA, USA), and 1.5 g/l sodium bicarbonate. Cells were cultured at 37 °C in a 5% CO2 atmosphere. The cell viability of ZN and VB compounds (concentration range: 0.1–100 μM) was evaluated by a 3-(4,5-dimethylthiazol-2-yl)-2,5-diphenyltetrazolium bromide (MTT; Sigma-Aldrich) colorimetric assay. The absorbance at 570 nm was recorded by a Multiskan™ GO Microplate Spectrophotometer (Thermo Scientific).

[1] = Cell number / cell survival in induced ΔK280 TauRD-DsRed SH-SY5Y cells (high-content); assay type: cell-based, human; settings: human; induced SH-SY5Y cells expressing ΔK280 TauRD-DsRed for 6 days, 2–10 μM tested; read-out: IC50 cytotoxicity based on cell number
Method: ΔK280 TauRD-DsRed SH-SY5Y cells were plated in the presence of 10 μM retinoid acid (RA; Sigma-Aldrich) to promote neuronal differentiation. The next day, cells were added with congo red or ZN/VB compounds (2–10 μM) for 8 h pretreatment, followed by inducing ΔK280 TauRD-DsRed expression with doxycycline (2 μg/mL). On day 8, cell nuclei were stained with Hoechst 33342 (0.1 μg/mL; Thermo Scientific), and cell images acquired using ImageXpress Micro Confocal High-Content Imaging System (Molecular Devices, San Jose, CA, USA) with DAPI (4′,6-diamidino-2-phenylindole, for nuclei) and TRITC (tetramethylrhodamine, for DsRed) fluorescence filter sets. To detect ROS changes, 10 μM compound-treated cells were stained with Hoechst 33342 and 2′,7′-dichlorodihydrofluorescein diacetate (H2DCFDA, 10 μM) fluorescein (Invitrogen, Carlsbad, CA, USA), and cell images captured using DAPI and FITC (fluorescein isothiocyanate, for DCF) filters. For assessing differential neurite outgrowth, 10 μM compound-treated cells were fixed (paraformaldehyde, 4%), permeabilized (Triton X-100, 0.3%), and stained with class III β-tubulin (TUBB3, 1:1000) primary antibody (#802001, BioLegend, San Diego, CA, USA), followed by donkey anti-rabbit Alexa Fluor® 555 secondary antibody (1:1000; #A-31572, Invitrogen) and DAPI (0.1 μg/mL; Sigma-Aldrich) stains. The nuclei and neurite images were acquired with DAPI and TRITC fluorescence filters, respectively. All analyses of images were performed using MetaXpress software (Molecular Device).

[2] = biological target: T1, E. coli-expressed ΔK280 TauRD protein (Homo sapiens, UniProt P10636, DEL597-597); assay: Thioflavin T fluorescence ΔK280 TauRD aggregation assay; assay type: biochemical; settings: TauRD protein 20 μM, 48 h at 37 °C; read-out: EC50 inhibiting ΔK280 TauRD aggregation
T1 construct: TauRD (Q^244-E^372 of Tau, NP_005901) aggregation; N-terminal Met (N); made in house; host or cells: E. coli
T1 sequence (P10636 with tags, fused parts or gaps isoform P10636-8 DEL280-280): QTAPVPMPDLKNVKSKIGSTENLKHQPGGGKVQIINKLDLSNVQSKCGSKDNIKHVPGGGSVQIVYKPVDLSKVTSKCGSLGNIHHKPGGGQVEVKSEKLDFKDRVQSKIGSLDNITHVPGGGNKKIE
Method: The anti-aggregation activity of congo red (positive control) and ZN/VB compounds (5–20 μM) was assessed using E. coli-expressed ΔK280 TauRD protein [33] and thioflavin T (Sigma-Aldrich) fluorescence assay. The trend of ΔK280 TauRD amyloid aggregate formation depicted with enhanced and red-shifted fluorescence was recorded by a FLx800 microplate fluorescence reader (BioTek Instruments), where the procedure was previously reported in detail.

caspase-6 = assay: Caspase-6 activity assay in cell lysates; assay type: cell-based, human; settings: uninduced = 100%, induced untreated 110.5%
Method: After being compounds-treated and RA-differentiated, cells were collected for caspase-1/6 and AChE activity measurements. Cells were lysed in lysis buffer with repeated freeze/thaw cycles and protein concentration in cell lysates quantitated. Types of substrates applied to detect each caspase’s activity were: YVAD-AFC for caspase-1 and VEID-AFC for caspase-6 (BioVision, Milpitas, CA, USA). The reaction mixtures were incubated for 1.5 h at 37 °C according to the manufacturer’s instructions. The fluorescence intensities with excitation/emission wavelengths at 400/505 nm were recorded by a FLx800 microplate fluorescence reader (BioTek Instruments). An AChE activity assay was performed according to the manufacturer’s instructions (Sigma-Aldrich), as described in the Ref. [28]. The mixture was incubated for 2–10 min at room temperature, and absorbance at 412 nm wavelength was measured by Multiskan™ GO Microplate Spectrophotometer (Thermo Scientific).

[3] = biological target: T2, TRKB extracellular domain (TRKB-ECD) (Homo sapiens, UniProt Q16620); assay: Tryptophan fluorescence quenching assay; settings: Pichia pastoris-expressed TRKB-ECD, 0–1000 nM, excitation 295 nm, emission 330 nm, room temperature; read-out: KD (TRKB-ECD binding affinity)
T2 construct: TRKB-ECD (marked in red, C^32-E^429, XP_016870240); His (C); made in house; host or cells: Pichia pastoris
T2 sequence (Q16620 32-429): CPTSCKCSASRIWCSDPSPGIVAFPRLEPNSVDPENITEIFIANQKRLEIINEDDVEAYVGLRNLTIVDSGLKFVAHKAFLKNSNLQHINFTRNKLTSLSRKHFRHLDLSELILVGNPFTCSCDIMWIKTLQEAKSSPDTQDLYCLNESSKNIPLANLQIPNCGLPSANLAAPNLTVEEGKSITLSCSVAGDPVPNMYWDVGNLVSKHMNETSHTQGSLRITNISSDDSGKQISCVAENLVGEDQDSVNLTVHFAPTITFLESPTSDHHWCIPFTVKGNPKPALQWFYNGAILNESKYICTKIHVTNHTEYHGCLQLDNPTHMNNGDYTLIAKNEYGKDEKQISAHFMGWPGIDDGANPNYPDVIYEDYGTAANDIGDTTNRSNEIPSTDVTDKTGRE
Method: The interaction between the N-terminal extracellular domain of TRKB (TRKB-ECD) and 7,8-DHF (as positive control; [35]), ZN-015, VB-030 or VB-037 was evaluated with tryptophan fluorescence titration. TRKB-ECD-His protein was expressed in the Pichia expression system (Invitrogen) and purified as stated. Intrinsic tryptophan fluorescence spectra with titration of a different concentration of compounds (0–1000 nM) were recorded by fluorescence spectrophotometer F-7000 (Hitachi, Tokyo, Japan), with excitation wavelength 295 nm and emission wavelength in the range of 300–400 nm. The calculation of dissociation constant (KD) between the 7,8-DHF or ZN/VB compound and TRKB was described in a previous report.

O=C(/C=C/c1ccccc1O)c1c(O)c2ccccc2oc1=O [ZN-015, (E)-4-hydroxy-3-(3-(2-hydroxyphenyl)acryloyl)-2H-chromen-2-one]
IC50 at 24 h (MTT cell viability assay): 77 µM
IC50 at 6 days [1]: 16 µM
EC50 [2]: 13.2 µM
caspase-6 activity (caspase-6): 99.8%
Kd [3]: 0.0122 ± 0.0094 µM
